According to patent US20230087361A1, “USE OF DIANTHRONE COMPOUND IN PREPARATION OF MEDICAMENT FOR PREVENTION AND/OR TREATMENT OF MYOCARDIAL ISCHEMIC DISEASE AND RELATED DISEASE THEREOF” (National Institutes for Food and Drug Control, priority 2021, published 2023):

Tests used:
[1] = tested on: mice with ISO-induced myocardial ischemia; assay: Serum biomarker for myocardial injury cTn-T (ELISA) in mice with ISO-induced myocardial ischemia; type: in vivo, Kunming mice; settings: ISO model mice; dianthrone 10 mg/kg intragastric or diltiazem 20 mg/kg intraperitoneal once a day for 10 days; serum 2 h after final ISO; n=7-10
Experimental: (§1) Male Kunming mice were acclimatized and randomly divided into four groups: a blank control group, an ISO model group, an ISO+diltiazem 20 mg.kg^1 positive control group, and an ISO+dianthrone 10 mgkgi group. Mice in the dianthrone group were intragastrically given the corresponding dose of dianthrone once a day, those in the diltiazem group were intraperitoneally given once a day, and those in the blank control group and the model group were given the same dose of solvent (both of which were 10 mL. kg) for 10 consecutive days. On day 4 of administration, the mice in each group were injected subcutaneously with 40 mg.kg^1 ISO once; the concentration of ISO subcutaneous injection was adjusted to 20 mg.kg^- on days 5 to 10 of administration. All mice were modeled at 2 h after administration. On the final day, the animals were treated at 2 h after ISO administration and modeling. Animal weights were recorded during the experiment. […]
(§2) Assay for biomarker for myocardial injury and myocardial enzyme: The blood was drawn from the orbit of the mouse, let stand at room temperature for 2 h, and centrifuged at 3,500 rpm for 20 min to separate the serum. The serum levels of CK-MB and cTn-T were detected according to the ELISA kit instructions.

[2] = tested on: mice with ISO-induced myocardial ischemia; assay: Serum myocardial enzyme CK-MB (ELISA) in mice with ISO-induced myocardial ischemia; type: in vivo, Kunming mice; settings: ISO model mice; dianthrone 10 mg/kg intragastric or diltiazem 20 mg/kg intraperitoneal once a day for 10 days; serum 2 h after final ISO; n=7-10
Experimental: as §1, §2

In the case of COc1ccc([C@@H]2Sc3ccccc3N(CCN(C)C)C(=O)[C@@H]2OC(C)=O)cc1 [Diltiazem, diltiazem], the “cTn-T (serum)” value [1] was 273.93 ± 36.17 ng/L and the “CK-MB (serum)” value [2] was 7.11 ± 1.63 ng/mL.
